Assay results as given in patent US20040047865A1, “Compositions and their uses” (priority 1995, published 2004).

What was measured:
[1] = test system: pig endothelial cells; conditions: infusion into baboons; Ye et al 1994; cited from earlier work
[2] = test system: XNA IgG, normal porcine endothelial cells (PAE-68#4); test: Two stage chromium release assay, inhibition of lysis by affinity-isolated IgG in the presence of sugars (FIG. 3); format: cell-based; conditions: IgG 80 μg/ml
Method: (§1) Briefly normal porcine endothelial cells were grown to confluence in 96well plates before being washed and labelled with ^51chromium. Excess label was removed and the cells were exposed to different concentrations of XNA. Unbound antibody was removed and 1/8 baby rabbit complement added for 1 hour at 37° C. Cell lysis was expressed as a percentage of the total counts associated with the endothelial cells, which could be detected in the medium after incubation of the cells with complement. […] Affinity-isolated IgM (10 μg/ml) or IgG (80 μg/ml) was incubated with endothelial cells as before in the presence of varying concentrations of four different sugar preparations. The cells were then washed and exposed to baby rabbit complement as previously described.

[3] = test system: porcine endothelial cells; conditions: Neethling et al 1994; cited from earlier work
[4] = test system: XNA IgM, normal porcine endothelial cells (PAE-68#4); test: Two stage chromium release assay, inhibition of lysis by affinity-isolated IgM in the presence of sugars (FIG. 3); format: cell-based; conditions: IgM 10 μg/ml
Method: as §1

| Compound | protection of pig endothelial cells from killing by serum of infused baboons [1] | inhibition of cell lysis / IgG binding [2] | inhibition of the cytotoxic effects of human serum on porcine endothelial cells [3] | inhibition of cell lysis / XNA IgM binding [4] |
| --- | --- | --- | --- | --- |
| arabinogalactan | A level of protection was afforded | – | – | – |
| OC[C@H]1O[C@H](O[C@H]2[C@@H](O)[C@@H](CO)OC(O)[C@@H]2O)[C@H](O)[C@@H](O)[C@H]1O (stereo partly shown) [B-disaccharide, Galα1,3Gal] | – | minimal difference | best inhibitors | – |
| OC[C@H]1O[C@H](OCC2O[C@@H](O)[C@H](O)[C@@H](O)[C@@H]2O)[C@H](O)[C@@H](O)[C@H]1O (stereo partly shown) [melibiose] | A level of protection was afforded | – | – | – |
| CC(=O)N[C@H]1C(O)O[C@H](CO)[C@@H](O[C@@H]2O[C@H](CO)[C@H](O)[C@H](O[C@H]3O[C@H](CO)[C@H](O)[C@H](O)[C@H]3O)[C@H]2O)[C@@H]1O (stereo partly shown) [B-trisaccharide, Galα1,3Galβ1,4GlcNAc] | – | minimal difference | best inhibitors | superior to B-disaccharide |
